{"source": "patent EP3521435A1", "about": "“A HIGH STRINGENCY SELECTION SYSTEM FOR PROTEIN EXPRESSION IN PROLINE-AUXOTROPHIC CELLS” (Bayer AG, priority 2018, dated 2019)", "key": {"[1]": {"system": "CHO-S cells", "procedure": "CHO-S cells (Thermo Fisher Scientific, A1155701) were passaged according to the manufacturer's recommendations at 37 °C and 5% CO2 in CD-CHO medium (Thermo Fisher Scientific , 10743029) containing 8 mM GlutaMAX. […] Viable cell densities and viabilities were recorded daily."}, "[2]": {"system": "CHO-K1 cells", "assay": "Cell viability post-transfection of transfected cell populations under selection conditions", "assay_type": "cell-based, Chinese hamster", "details": "pJF1555", "procedure": "(§1) To efficiently test the impact of different procedures on improving selection stringency, experimental testing in stable cell populations was performed. As test molecules, enhanced green fluorescent protein (GFP) as well as a human IgG1 were chosen. CHO-K1 cells adapted to growth in suspension in defined medium were obtained from SAFC and cultivated in EX-CELL CD CHO Fusion medium (SAFC 14365C). Custom-made EX-CELL CD CHO Fusion medium without L-Proline (Pro) and without L-Ornithine (Orn) (\"proline-free medium\") was obtained from SAFC. The expression vector system was based on modified versions of \"CET 1019 AS-puro-SceI\" and \"CET 1019 AD-puro-SceI\" for GFP and human IgG1, respectively, from Merck-Millipore, containing the Puromycin selection marker (Puromycin N-acetyl-transferase) known to exert a high selection stringency. To minimize variations in cell populations derived from using different transfections or different vectors, the first series of experiments were conducted using vectors into which a P5CS expression cassette was cloned upstream of a UCOE element, in addition to the Puromycin selection marker present downstream of a gene of interest. This way, it was possible to pool different transfections using the same vector to obtain a common starting point, and split the mixture according to different selection conditions, minimizing any variations that are not due to selection conditions themselves. Expression of long and short isoform of murine P5CS (Protein: Delta-1-pyrroline-5-carboxylate synthase; Gene: Aldh18a1; UniProtKB accession number: Q9Z110-1 & Q9Z110-2) was driven by a SV40 promoter. A SV40 polyadenylation sequence was used at the 3' end of the gene. More details can be found in Table 1. Typically, CHO cells were cultivated in EX-CELL CD CHO Fusion medium containing 6 mM GlutaMAX (Thermo Fisher, 35050-38) (\"CD-Fusion medium\") at 37 °C with 5% CO2. Cells were grown to logarithmic phase under shaking conditions for transfections. 1e7 cells/cuvette were transfected using nucleofection (Amaxa Nucleofector II, following the manufacturer's recommendations) with 5 µg of linearized DNA. After transfection, cells were taken up in 1 ml medium and transferred into 1 well of a 6 well microtiter plate (MTP) already containing 1 ml medium. The cells were incubated for 24 h without shaking, after which 9 ml medium were added and cells were washed (either in standard or proline-free medium). Multiple transfections were pooled, if applicable. Cells were adjusted to 2e5 viable cells/ml and 10 ml were transferred to T-25 flasks. Reference cell populations were selected using 10 µg/ml Puromycin in CD-Fusion medium. For P5CS-based selection, EX-CELL CD CHO Fusion medium (custom-made, SAFC) containing 6 mM GlutaMAX without proline and without ornithine was used (\"proline-free\" or \"CD-Fusion w/o Pro\" medium), with or without additional selection pressure.\n(§2) Cell viability of the different populations was monitored over time. As soon as cell populations appeared to recover from selection pressure, cells were transferred to Shake Flask or TubeSpins for expansion in suspension under shaking conditions. Subsequently, stable cell populations transfected with IgG were seeded at 2e5 viable cells/ml for batch fermentation without selection pressure (i.e. standard CD-Fusion medium containing proline and no other selective agents). The cells were cultivated for 5-10 days, viable cell densities and productivity were monitored over time. IgG titers were determined using Poros A-HPLC method. Typically, final batch titers were recorded at a time point at which majority of cultures had around 70% viability. Stable cell populations transfected with GFP vector were subjected to analysis by flow cytometry using Guava easyCyte 8HT Benchtop Flow Cytometer (Millipore). 250 µl of cell culture were transferred to 96 MTP and washed with PBS. Dead cells were excluded from analysis using propidium iodide (PI). […]"}, "[3]": {"system": "CHO-K1 cells", "assay": "Flow cytometric analysis of GFP expression (MFI, high fluorescing cells) in stably selected cell populations", "assay_type": "cell-based, Chinese hamster", "details": "day 15 post-transfection, pJF1555", "procedure": "as §1, §2"}, "[4]": {"details": "Day 1, Proline-free Medium + 0,5mM L-Prolin"}, "[5]": {"details": "Day 1, Proline-free Medium + 0,25mM L-Prolin"}, "[6]": {"details": "Day 1, Proline-free Medium + 1,0mM L-Prolin"}, "[7]": {"details": "Day 1, Proline-free Medium + 2,5mM L-Prolin"}, "[8]": {"details": "Day 2, Proline-free Medium + 0,5mM L-Prolin"}, "[9]": {"details": "Day 2, Proline-free Medium + 0,25mM L-Prolin"}, "[10]": {"details": "Day 2, Proline-free Medium + 1,0mM L-Prolin"}, "[11]": {"details": "Day 2, Proline-free Medium + 2,5mM L-Prolin"}, "[12]": {"details": "Day 3, Proline-free Medium + 0,5mM L-Prolin"}, "[13]": {"details": "Day 3, Proline-free Medium + 0,25mM L-Prolin"}, "[14]": {"details": "Day 3, Proline-free Medium + 1,0mM L-Prolin"}, "[15]": {"details": "Day 3, Proline-free Medium + 2,5mM L-Prolin"}, "[16]": {"details": "Day 6, Proline-free Medium + 0,5mM L-Prolin"}, "[17]": {"details": "Day 6, Proline-free Medium + 0,25mM L-Prolin"}, "[18]": {"details": "Day 6, Proline-free Medium + 1,0mM L-Prolin"}, "[19]": {"details": "Day 6, Proline-free Medium + 2,5mM L-Prolin"}, "[20]": {"details": "CD-Fusion w/o Pro + 0.1 mM Thiazolidine-2-carboxylic acid"}, "[21]": {"details": "CD-Fusion w/o Pro + 0.5 mM Thiazolidine-2-carboxylic acid"}, "[22]": {"details": "CD-Fusion w/o Pro + 1 mM Thiazolidine-2-carboxylic acid"}, "[23]": {"details": "CD-Fusion w/o Pro + 2.5 mM Thiazolidine-2-carboxylic acid"}, "[24]": {"details": "CD-Fusion w/o Pro + 10 mM Thiazolidine-2-carboxylic acid"}, "[25]": {"details": "CD-Fusion w/o Pro + 5 mM trans-4-Hydroxy-L-Proline"}, "[26]": {"details": "CD-Fusion w/o Pro + 10 mM trans-4-Hydroxy-L-Proline"}}, "note": "Read-outs that look alike come from different tables or passages of the source."}
{"compound": "O=C(O)[C@@H]1CCCN1", "note": "[L-Prolin, L-Proline]", "values": [{"measurement": "Viability", "setting": "[1]; [4]", "value": "98,2"}, {"measurement": "Viable Cell Conc.", "setting": "[1]; [4]", "value": "3,7E+05"}, {"measurement": "Viability", "setting": "[1]; [5]", "value": "95,6"}, {"measurement": "Viable Cell Conc.", "setting": "[1]; [5]", "value": "3,5E+05"}, {"measurement": "Viability", "setting": "[1]; [6]", "value": "100,0"}, {"measurement": "Viable Cell Conc.", "setting": "[1]; [6]", "value": "3,6E+05"}, {"measurement": "Viability", "setting": "[1]; [7]", "value": "99,3"}, {"measurement": "Viable Cell Conc.", "setting": "[1]; [7]", "value": "3,3E+05"}, {"measurement": "Viability", "setting": "[1]; [8]", "value": "99,7"}, {"measurement": "Viable Cell Conc.", "setting": "[1]; [8]", "value": "6,3E+05"}, {"measurement": "Viability", "setting": "[1]; [9]", "value": "98,1"}, {"measurement": "Viable Cell Conc.", "setting": "[1]; [9]", "value": "5,7E+05"}, {"measurement": "Viability", "setting": "[1]; [10]", "value": "99,7"}, {"measurement": "Viable Cell Conc.", "setting": "[1]; [10]", "value": "5,6E+05"}, {"measurement": "Viability", "setting": "[1]; [11]", "value": "97,5"}, {"measurement": "Viable Cell Conc.", "setting": "[1]; [11]", "value": "4,9E+05"}, {"measurement": "Viability", "setting": "[1]; [12]", "value": "99,5"}, {"measurement": "Viable Cell Conc.", "setting": "[1]; [12]", "value": "1,2E+06"}, {"measurement": "Viability", "setting": "[1]; [13]", "value": "99,6"}, {"measurement": "Viable Cell Conc.", "setting": "[1]; [13]", "value": "9,1E+05"}, {"measurement": "Viability", "setting": "[1]; [14]", "value": "99,2"}, {"measurement": "Viable Cell Conc.", "setting": "[1]; [14]", "value": "1,1E+06"}, {"measurement": "Viability", "setting": "[1]; [15]", "value": "99,8"}, {"measurement": "Viable Cell Conc.", "setting": "[1]; [15]", "value": "1,1E+06"}, {"measurement": "Viability", "setting": "[1]; [16]", "value": "99,9"}, {"measurement": "Viable Cell Conc.", "setting": "[1]; [16]", "value": "3,8E+06"}, {"measurement": "Viability", "setting": "[1]; [17]", "value": "98,2"}, {"measurement": "Viable Cell Conc.", "setting": "[1]; [17]", "value": "1,3E+06"}, {"measurement": "Viability", "setting": "[1]; [18]", "value": "99,5"}, {"measurement": "Viable Cell Conc.", "setting": "[1]; [18]", "value": "6,6E+06"}, {"measurement": "Viability", "setting": "[1]; [19]", "value": "99,7"}, {"measurement": "Viable Cell Conc.", "setting": "[1]; [19]", "value": "6,3E+06"}]}
{"compound": "O=C(O)C1NCCS1", "note": "(stereo not drawn) [Thiazolidine-2-carboxylic acid]", "values": [{"measurement": "Viability on day 12 post-transfection", "setting": "[2]; [20]", "value": 87, "unit": "%"}, {"measurement": "Viability on day 12 post-transfection", "setting": "[2]; [21]", "value": 78, "unit": "%"}, {"measurement": "Viability on day 12 post-transfection", "setting": "[2]; [22]", "value": 11, "unit": "%"}, {"measurement": "Viability on day 12 post-transfection", "setting": "[2]; [23]", "value": 15, "unit": "%"}, {"measurement": "Viability on day 12 post-transfection", "setting": "[2]; [24]", "value": 16, "unit": "%"}, {"measurement": "concentration at which recovery kinetics were affected", "setting": "[2]; proline-free medium, Table 8", "value": "0.5 to 1", "unit": "mM"}, {"measurement": "Frequency of high fluorescing cells", "setting": "[3]; [20]", "value": 4.9, "unit": "%"}, {"measurement": "Frequency of high fluorescing cells", "setting": "[3]; [21]", "value": 2.3, "unit": "%"}, {"measurement": "Frequency of high fluorescing cells", "setting": "[3]; [22]", "value": 0.0, "unit": "%"}, {"measurement": "Frequency of high fluorescing cells", "setting": "[3]; [23]", "value": 0.0, "unit": "%"}, {"measurement": "Frequency of high fluorescing cells", "setting": "[3]; [24]", "value": 0.0, "unit": "%"}]}
{"compound": "O=C(O)[C@@H]1C[C@@H](O)CN1", "note": "[trans-4-Hydroxy-L-Proline]", "values": [{"measurement": "Viability on day 12 post-transfection", "setting": "[2]; [25]", "value": 84, "unit": "%"}, {"measurement": "Viability on day 12 post-transfection", "setting": "[2]; [26]", "value": 84, "unit": "%"}, {"measurement": "selection pressure", "setting": "[2]; up to 10 mM, proline-free medium", "value": "no increased selection pressure observable"}, {"measurement": "Frequency of high fluorescing cells", "setting": "[3]; [25]", "value": 2.6, "unit": "%"}, {"measurement": "Frequency of high fluorescing cells", "setting": "[3]; [26]", "value": 2.6, "unit": "%"}]}
